# According to patent US6759509B1, “Branched peptide linkers” (Bristol-Myers Squibb Company, priority 1996, dated 2004):
# Assay: decomposition of the isolated drug/linker in solution
# Assay type: physicochemical
# Settings: by HPLC for Example 31
# Protocol: A solution of MEt-IDA-(Phe-Lys(Mtr)-PABC-MMC)2 30 (134.6 mg, 0.0590 mmol) in methylene chloride (3 mL) at rt was treated with anisole (1.28 mL, 200 equiv) and 1 M chloroacetic acid in methylene chloride (1.18 mL, 20 equiv). After 3.5 h ethyl acetate (30 mL) was added. The resulting purple solid was collected by filtration, washed with ethyl acetate and air-dried (97.8 mg, 82%). […] MS (FAB) 1738.3 (M+Na)^+, 1776.4 (M+K)^+.
# MEt-IDA-(Phe-Lys(Mtr)-PABC-7-Paclitaxel)2 33 (333.0 mg, 0.0861 mmol) in methylene chloride (3 mL) was treated with anisole (1.87 mL, 200 equiv) and 1 M chloroacetic acid in methylene chloride (1.72 mL, 20 equiv). After 4 h the mixture was diluted with ether (30 mL). The resulting suspension was sonicated for several minutes and then the solid was collected by filtration and washed with ether (256.3 mg, 97%). […] MS (ESI) 2778.2 (MH)^+.
substance,measurement,value
MEt-IDA-(Phe-Lys-PABC-MMC)2.2Cl2CHCO2H [Example 31],stability of the product in solution,appeared to decompose in solution to one product
